Measured values as given in ChEMBL document CHEMBL1201862, “PubChem BioAssay data set” (2004).
The source made the active and inactive calls. How the calls were made is not given here.

Experiments:
Format in all cases: functional
[1] = target: Serine/threonine-protein kinase 17A (Homo sapiens, UniProt Q9UEE5)
[2] = target: Maternal embryonic leucine zipper kinase (Homo sapiens, UniProt Q14680)
[3] = target: Serine/threonine-protein kinase pim-1 (Homo sapiens, UniProt P11309)
[4] = target: Tyrosine-protein kinase Lck (Homo sapiens, UniProt P06239);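 further: lck was assayed as one member of a kinase panel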
[5] = target: Serine/threonine-protein kinase PLK1 (Homo sapiens, UniProt P53350);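 further: PLK1 measured as one member of a kinome-wide profiling panel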
Serine/threonine-protein kinase PLK1, sequence (P53350 whole entry): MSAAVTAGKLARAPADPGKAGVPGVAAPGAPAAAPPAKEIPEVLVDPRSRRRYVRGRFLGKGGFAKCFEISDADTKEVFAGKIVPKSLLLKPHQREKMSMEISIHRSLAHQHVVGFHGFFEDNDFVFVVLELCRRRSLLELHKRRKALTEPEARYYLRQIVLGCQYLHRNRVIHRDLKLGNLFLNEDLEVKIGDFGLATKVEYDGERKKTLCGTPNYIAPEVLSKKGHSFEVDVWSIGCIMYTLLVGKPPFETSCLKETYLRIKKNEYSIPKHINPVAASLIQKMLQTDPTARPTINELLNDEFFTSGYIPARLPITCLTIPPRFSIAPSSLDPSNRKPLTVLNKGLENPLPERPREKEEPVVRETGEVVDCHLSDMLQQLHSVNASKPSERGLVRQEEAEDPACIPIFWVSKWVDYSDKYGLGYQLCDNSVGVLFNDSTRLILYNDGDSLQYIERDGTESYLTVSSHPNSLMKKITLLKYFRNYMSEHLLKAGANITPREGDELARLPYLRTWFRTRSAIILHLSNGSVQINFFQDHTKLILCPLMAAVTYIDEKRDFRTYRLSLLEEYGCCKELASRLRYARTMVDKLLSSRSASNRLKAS

Tyrosine-protein kinase Lck, sequence (P06239 whole entry): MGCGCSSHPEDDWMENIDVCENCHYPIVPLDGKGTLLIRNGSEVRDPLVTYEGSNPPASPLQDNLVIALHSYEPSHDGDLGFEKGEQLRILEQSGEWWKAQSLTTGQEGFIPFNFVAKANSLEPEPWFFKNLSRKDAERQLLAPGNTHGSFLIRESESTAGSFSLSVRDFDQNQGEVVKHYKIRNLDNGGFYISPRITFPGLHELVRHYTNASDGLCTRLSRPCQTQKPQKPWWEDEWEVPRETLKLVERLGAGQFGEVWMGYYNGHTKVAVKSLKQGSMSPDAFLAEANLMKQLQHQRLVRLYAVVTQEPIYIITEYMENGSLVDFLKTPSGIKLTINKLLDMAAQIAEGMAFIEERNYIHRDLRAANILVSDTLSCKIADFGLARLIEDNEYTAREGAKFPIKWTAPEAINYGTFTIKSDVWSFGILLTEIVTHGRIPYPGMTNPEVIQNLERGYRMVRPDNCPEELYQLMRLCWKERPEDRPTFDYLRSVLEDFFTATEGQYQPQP
Maternal embryonic leucine zipper kinase, sequence (Q14680 whole entry): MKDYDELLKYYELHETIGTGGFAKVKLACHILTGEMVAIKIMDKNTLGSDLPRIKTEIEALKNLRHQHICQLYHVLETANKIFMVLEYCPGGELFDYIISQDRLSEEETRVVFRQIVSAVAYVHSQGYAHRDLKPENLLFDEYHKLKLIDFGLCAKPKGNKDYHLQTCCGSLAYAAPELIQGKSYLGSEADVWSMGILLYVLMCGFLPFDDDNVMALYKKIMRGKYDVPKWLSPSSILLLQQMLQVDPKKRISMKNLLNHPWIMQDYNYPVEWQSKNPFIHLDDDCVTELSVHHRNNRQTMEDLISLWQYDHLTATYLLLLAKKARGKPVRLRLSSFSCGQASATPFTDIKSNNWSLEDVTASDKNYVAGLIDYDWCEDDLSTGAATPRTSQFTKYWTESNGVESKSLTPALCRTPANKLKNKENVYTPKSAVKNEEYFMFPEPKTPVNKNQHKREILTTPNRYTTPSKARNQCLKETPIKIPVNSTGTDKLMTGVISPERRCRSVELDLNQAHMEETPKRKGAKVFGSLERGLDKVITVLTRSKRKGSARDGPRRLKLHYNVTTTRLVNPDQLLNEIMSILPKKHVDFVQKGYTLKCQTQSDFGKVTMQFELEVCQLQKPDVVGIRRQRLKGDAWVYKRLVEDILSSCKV
Serine/threonine-protein kinase pim-1, sequence (P11309 whole entry): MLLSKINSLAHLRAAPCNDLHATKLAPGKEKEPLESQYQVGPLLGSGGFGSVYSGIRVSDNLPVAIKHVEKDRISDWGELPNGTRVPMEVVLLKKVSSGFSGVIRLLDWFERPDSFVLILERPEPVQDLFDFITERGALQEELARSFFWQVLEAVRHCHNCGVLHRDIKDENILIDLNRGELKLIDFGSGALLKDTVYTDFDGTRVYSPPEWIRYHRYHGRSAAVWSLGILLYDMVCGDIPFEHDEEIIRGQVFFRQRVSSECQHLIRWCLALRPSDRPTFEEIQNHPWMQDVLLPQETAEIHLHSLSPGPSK
Serine/threonine-protein kinase 17A, sequence (Q9UEE5 whole entry): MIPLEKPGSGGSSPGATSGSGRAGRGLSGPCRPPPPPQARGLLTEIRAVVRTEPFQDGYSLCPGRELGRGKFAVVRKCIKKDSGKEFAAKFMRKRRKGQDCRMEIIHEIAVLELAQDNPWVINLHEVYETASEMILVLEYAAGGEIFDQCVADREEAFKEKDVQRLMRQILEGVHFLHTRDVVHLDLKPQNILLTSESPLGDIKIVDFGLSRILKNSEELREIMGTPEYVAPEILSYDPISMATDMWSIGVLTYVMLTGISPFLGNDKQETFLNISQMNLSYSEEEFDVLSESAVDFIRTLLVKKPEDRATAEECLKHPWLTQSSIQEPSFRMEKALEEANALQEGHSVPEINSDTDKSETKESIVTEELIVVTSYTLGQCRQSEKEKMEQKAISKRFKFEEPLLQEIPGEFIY

Row | Ki [1] | Ki [2] | Ki [3] | Ki [4] | Ki [5] | SMILES
1 | 501 nM (active) | 15.8 nM (active) | – | – | – | Cc1n[nH]c2cnc(-c3cncc(OCC(N)Cc4cccc(C(F)(F)F)c4)c3)cc12 (stereo not given)
2 | – | – | 158 nM (active) | > 2510 nM (inactive) | 1260 nM (active) | Cc1c(C=O)c(O)n2c(nc3ccccc32)c1C#N
